Consider 19 compounds from patent US11242350B2, “Spirocyclic ROR-gamma modulators” (Escalier Biosciences B.V., priority 2018, dated 2022).

Where only a bound is given, the exact number is not on record here.

In general, IC50 refers to the concentration that gives 50% inhibition.

RORγt, sequence (P51449 269-508): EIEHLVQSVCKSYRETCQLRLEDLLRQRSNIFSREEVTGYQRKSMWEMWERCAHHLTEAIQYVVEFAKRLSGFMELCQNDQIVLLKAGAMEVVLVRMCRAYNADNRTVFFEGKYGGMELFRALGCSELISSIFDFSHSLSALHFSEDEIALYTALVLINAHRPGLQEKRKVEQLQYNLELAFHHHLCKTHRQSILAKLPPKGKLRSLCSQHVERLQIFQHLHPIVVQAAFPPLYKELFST

This experiment addresses RORγt (Homo sapiens (Human), UniProt P51449). The experiment is described as follows: Gal4 ligand binding assay (RORγt Gal fusion luciferase reporter assay in HEK293T cells). It counts as cell-based. As to conditions: RORγt inverse agonists in RORγt Gal fusion assay. The method in brief:
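Stable HEK293T line expressing the receptor fused to the Gal4 DBD, with a Gal4 UAS-driven luciferase; constitutively active, so agonism and inverse agonism both register. 10-point 1:3 titrations, 60 μM to 3 nM as prepared in media (added as 2×), 0.2% final DMSO; 24 h at 37 °C. Luminescence normalised to vehicle-only wells.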
For orientation: A reporter such as luciferase makes a cellular process visible.
Regarding `CC(C)c1cc(CN2CC3(C2)CN(S(C)(=O)=O)C3)c(F)cc1-c1ccc(C(O)(C(F)(F)F)C(F)(F)F)cc1F` [Example 80, 2-(2,5′-difluoro-2′-isopropyl-4′-((6-(methylsulfonyl)-2,6-diazaspiro[3.3]heptan-2-yl)methyl)-[1,1′-biphenyl]-4-yl)-1,1,1,3,3,3-hexafluoropropan-2-ol], the concentration for half-maximal inhibition (IC50) was below 50 nM.

In the case of `CCc1c(F)c(CN2CC3(C2)CN(S(C)(=O)=O)C3)cc(F)c1-c1ccc(C(O)(C(F)(F)F)C(F)(F)F)cc1F` [Example 70, 2-(2′-ethyl-2,3′,6′-trifluoro-4′-((6-(methylsulfonyl)-2,6-diazaspiro[3.3]heptan-2-yl)methyl)-[1,1′-biphenyl]-4-yl)-1,1,1,3,3,3-hexafluoropropan-2-ol], the IC50 was below 50 nM.

Turning to `CCc1cc(CN2CC3(CCN(C(=O)OC(C)(C)C)C3)C2)ccc1-c1ccc(C(O)(C(F)(F)F)C(F)(F)F)cc1` [Example 38, tert-butyl 2-((2-ethyl-4′-(1,1,1,3,3,3-hexafluoro-2-hydroxypropan-2-yl)-[1,1′-biphenyl]-4-yl)methyl)-2,6-diazaspiro[3.4]octane-6-carboxylate], the IC50 is 50 to 250 nM.

Regarding `CCc1cc(CN2CCC3(CCS(=O)(=O)C3)C2)ccc1-c1ccc(C(O)(C(F)(F)F)C(F)(F)F)cc1` (stereo not shown) [Example 58, 7-((2-ethyl-4′-(1,1,1,3,3,3-hexafluoro-2-hydroxypropan-2-yl)-[1,1′-biphenyl]-4-yl)methyl)-2-thia-7-azaspiro[4.4]nonane 2,2-dioxide], the IC50 is below 50 nM.

In turn, `CCc1cc(CN2CCC3(CCNC3=O)C2)ccc1-c1ccc(C(O)(C(F)(F)F)C(F)(F)F)cc1` (stereo not shown) [Example 53, 7-((2-ethyl-4′-(1,1,1,3,3,3-hexafluoro-2-hydroxypropan-2-yl)-[1,1′-biphenyl]-4-yl)methyl)-2,7-diazaspiro[4.4]nonan-1-one] registered an IC50 of 50 to 250 nM.

Turning to `CC(C)c1cc(CN2CC3(C2)CN(S(C)(=O)=O)C3)cc(F)c1-c1ccc(C(O)(C(F)(F)F)C(F)(F)F)cc1` [Example 15, 1,1,1,3,3,3-hexafluoro-2-(2′-fluoro-6′-isopropyl-4′-((6-(methylsulfonyl)-2,6-diazaspiro[3.3]heptan-2-yl)methyl)-[1,1′-biphenyl]-4-yl)propan-2-ol], the half-inhibitory concentration (IC50) is below 50 nM.

Compound `CC(C)c1c(F)c(CN2CC3(C2)CN(S(C)(=O)=O)C3)cc(F)c1-c1ccc(C(O)(C(F)(F)F)C(F)(F)F)cc1Cl` [Example 87, 2-(2-chloro-3′,6′-difluoro-2′-isopropyl-4′-((6-(methylsulfonyl)-2,6-diazaspiro[3.3]heptan-2-yl)methyl)-[1,1′-biphenyl]-4-yl)-1,1,1,3,3,3-hexafluoropropan-2-ol] showed a concentration for half-maximal inhibition (IC50) below 50 nM.

`CS(=O)(=O)N1CC2(CN(Cc3cc(F)c(-c4ccc(C(O)(C(F)(F)F)C(F)(F)F)cc4)c(C4CC4)c3F)C2)C1` [Example 88, 2-(2′-cyclopropyl-3′,6′-difluoro-4′-((6-(methylsulfonyl)-2,6-diazaspiro[3.3]heptan-2-yl)methyl)-[1,1′-biphenyl]-4-yl)-1,1,1,3,3,3-hexafluoropropan-2-ol] registered an IC50 below 50 nM.

The compound `CS(=O)(=O)N1CC2(CN(Cc3ccc(-c4ccc(C(O)(C(F)(F)F)C(F)(F)F)cc4)c(Br)c3)C2)C1` [Example 45, 2-(2′-bromo-4′-((6-(methylsulfonyl)-2,6-diazaspiro[3.3]heptan-2-yl)methyl)-[1,1′-biphenyl]-4-yl)-1,1,1,3,3,3-hexafluoropropan-2-ol] had a half-inhibitory concentration (IC50) of 50 to 250 nM.

Consider `CCc1cc(CN2CC3(C2)CN(S(C)(=O)=O)C3)ncc1-c1ccc(C(O)(C(F)(F)F)C(F)(F)F)cc1` [Example 60, 2-(4-(4-ethyl-6-((6-(methylsulfonyl)-2,6-diazaspiro[3.3]heptan-2-yl)methyl)pyridin-3-yl)phenyl)-1,1,1,3,3,3-hexafluoropropan-2-ol], for which the IC50 was below 50 nM.

`CCc1cc(CN2CC3(CC[S+]([O-])C3)C2)ccc1-c1ccc(C(O)(C(F)(F)F)C(F)(F)F)cc1` (stereo not shown) [Example 25, 2-((2-ethyl-4′-(1,1,1,3,3,3-hexafluoro-2-hydroxypropan-2-yl)-[1,1′-biphenyl]-4-yl)methyl)-6-thia-2-azaspiro[3.4]octane 6-oxide] had an IC50 above 250 nM.

Consider `CCc1cc(CN2CC3(C2)CN(S(C)(=O)=O)C3)ccc1-c1ccc(C(O)(C(F)(F)F)C(F)(F)F)cc1F` [Example 34, 2-(2′-ethyl-2-fluoro-4′-((6-(methylsulfonyl)-2,6-diazaspiro[3.3]heptan-2-yl)methyl)-[1,1′-biphenyl]-4-yl)-1,1,1,3,3,3-hexafluoropropan-2-ol], for which the IC50 is below 50 nM.

On to `CCc1cc(CN2CC3(CSC3)C2)ccc1-c1ccc(C(O)(C(F)(F)F)C(F)(F)F)cc1` [Example 28, 2-(4′-((2-thia-6-azaspiro[3.3]heptan-6-yl)methyl)-2′-ethyl-[1,1′-biphenyl]-4-yl)-1,1,1,3,3,3-hexafluoropropan-2-ol], for which the IC50 is above 250 nM.

Take `CCc1c(-c2ccc(C(O)(C(F)(F)F)C(F)(F)F)cc2)ccc(CN2CC3(C2)CN(S(C)(=O)=O)C3)c1F` [Example 37, 2-(2′-ethyl-3′-fluoro-4′-((6-(methylsulfonyl)-2,6-diazaspiro[3.3]heptan-2-yl)methyl)-[1,1′-biphenyl]-4-yl)-1,1,1,3,3,3-hexafluoropropan-2-ol]: the concentration for half-maximal inhibition (IC50) is below 50 nM.

Compound `CCc1cc(CN2CC3(C2)CS(=O)(=O)C3)ccc1-c1ccc(C(O)(C(F)(F)F)C(F)(F)F)cc1C` [Example 18, 6-((2-ethyl-4′-(1,1,1,3,3,3-hexafluoro-2-hydroxypropan-2-yl)-2′-methyl-[1,1′-biphenyl]-4-yl)methyl)-2-thia-6-azaspiro[3.3]heptane 2,2-dioxide] gave an IC50 below 50 nM.

`CCc1cc(CN2CC3(C2)CN(C(=O)OC(C)(C)C)C3)ccc1-c1ccc(C(O)(C(F)(F)F)C(F)(F)F)cc1` [Example 1, tert-butyl 6-((2-ethyl-4′-(1,1,1,3,3,3-hexafluoro-2-hydroxypropan-2-yl)-[1,1′-biphenyl]-4-yl)methyl)-2,6-diazaspiro[3.3]heptane-2-carboxylate] showed an IC50 of 50 to 250 nM.

Regarding `CCc1cc(CN2CCC(S(C)(=O)=O)CC2)ccc1-c1ccc(C(O)(C(F)(F)F)C(F)(F)F)cc1` [Example 10, 2-(2′-ethyl-4′-((4-(methylsulfonyl)piperidin-1-yl)methyl)-[1,1′-biphenyl]-4-yl)-1,1,1,3,3,3-hexafluoropropan-2-ol], the 50% inhibitory concentration (IC50) was below 50 nM.

In turn, `CCc1cc(CN2CCCC3(C2)CN(S(C)(=O)=O)C3)ccc1-c1ccc(C(O)(C(F)(F)F)C(F)(F)F)cc1` [Example 5, 2-(2′-ethyl-4′-((2-(methylsulfonyl)-2,6-diazaspiro[3.5]nonan-6-yl)methyl)-[1,1′-biphenyl]-4-yl)-1,1,1,3,3,3-hexafluoropropan-2-ol] gave a concentration for half-maximal inhibition (IC50) below 50 nM.

`CCc1cc(CN2CC(CNS(C)(=O)=O)C2)ccc1-c1ccc(C(O)(C(F)(F)F)C(F)(F)F)cc1` [Example 32, N-((1-((2-ethyl-4′-(1,1,1,3,3,3-hexafluoro-2-hydroxypropan-2-yl)-[1,1′-biphenyl]-4-yl)methyl)azetidin-3-yl)methyl)methanesulfonamide] registered a 50% inhibitory concentration (IC50) above 250 nM.
